Here are results for one compound from patent US11905286B2, “Diazabicyclooctanones as inhibitors of serine beta-lactamases” (priority 2018, dated 2024).

Experiment [1] deals with OXA-48 (Klebsiella pneumoniae, UniProt Q6XEC0). Nature of the experiment: In vitro enzyme inhibition assay (nitrocefin hydrolysis), OXA-48. The format is biochemical. The method, then:
(§1) Compound dilution was performed in DMSO.

The subject of experiment [2] is NTBC189 (K. pneumoniae strain expressing TEM-OSBL(b), CTX-M-14, OXA-48(c)). Nature of the experiment: Meropenem potentiation, broth micro-dilution MIC, strain NTBC189. The note with it: Klebsiella pneumoniae, read-out: MIC mero + 4 μg/mL inhibitor.
Protocol: (§2) The experiments were carried out using the ‘broth micro-dilution method’ according to the protocols M07-A8 established by the Clinical Laboratory Standards Institute (CLSI). […] After incubation for 18-20 hours in a heating chamber at 37° C., the growth inhibition was evaluated by the absence of any bacterial development.
(§3) Compounds of the invention were tested at concentrations of 4 μg/mL.
The subject of experiment [3] is NTBC099 (K. pneumoniae strain expressing KPC-3, SHV-11 and TEM-1). Kind of experiment: Meropenem potentiation, broth micro-dilution MIC, strain NTBC099. The note with it: Klebsiella pneumoniae, read-out: MIC mero + 4 μg/mL inhibitor. (In broth dilution the organism is exposed to a series of concentrations in liquid medium.)
Protocol: as §2, §3
Experiment [4] deals with NTBC096.1 (K. pneumoniae strain expressing OXA-181 and SHV-11). Nature of the experiment: Meropenem potentiation, broth micro-dilution MIC, strain NTBC096.1. Conditions: Klebsiella pneumoniae, read-out: MIC mero + 4 μg/mL inhibitor. The format is cell-based.
Protocol: as §2, §3
For experiment [5], the system named is NTBC091.1 (E. coli strain expressing KPC-2, TEM-1). Kind of experiment: Meropenem potentiation, broth micro-dilution MIC, strain NTBC091.1. The format is cell-based.
Protocol: as §2, §3
Experiment [6] deals with CTX-M15 (Escherichia coli, UniProt Q9EXV5). Kind of experiment: In vitro enzyme inhibition assay (nitrocefin hydrolysis), CTX-M15. The format is biochemical. The method, then:
as §1

Experiment [7] has as its system NTBC093 (E. cloacae strain expressing KPC-2, TEM-1). Nature of the experiment: Meropenem potentiation, broth micro-dilution MIC, strain NTBC093. Conditions: Enterobacter cloacae, read-out: MIC mero + 4 μg/mL inhibitor.
Protocol: as §2, §3
In experiment [8] the target is KPC-2 (Klebsiella pneumoniae, UniProt Q9F663). Kind of experiment: In vitro enzyme inhibition assay (nitrocefin hydrolysis), KPC-2. The format is biochemical. The method, then: as §1
KPC-2, sequence (Q9F663 25-293 limits assumed): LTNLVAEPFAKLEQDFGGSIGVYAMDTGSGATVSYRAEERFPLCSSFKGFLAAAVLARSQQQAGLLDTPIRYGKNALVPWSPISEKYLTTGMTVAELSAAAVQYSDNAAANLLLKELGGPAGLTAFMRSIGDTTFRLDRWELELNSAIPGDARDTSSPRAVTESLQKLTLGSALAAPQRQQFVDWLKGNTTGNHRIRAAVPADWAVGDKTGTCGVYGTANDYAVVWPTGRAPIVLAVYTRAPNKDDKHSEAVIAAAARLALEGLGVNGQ

Counter-ions that a name gives are not always drawn.

CTX-M15, sequence (Q9EXV5 entry or part of it): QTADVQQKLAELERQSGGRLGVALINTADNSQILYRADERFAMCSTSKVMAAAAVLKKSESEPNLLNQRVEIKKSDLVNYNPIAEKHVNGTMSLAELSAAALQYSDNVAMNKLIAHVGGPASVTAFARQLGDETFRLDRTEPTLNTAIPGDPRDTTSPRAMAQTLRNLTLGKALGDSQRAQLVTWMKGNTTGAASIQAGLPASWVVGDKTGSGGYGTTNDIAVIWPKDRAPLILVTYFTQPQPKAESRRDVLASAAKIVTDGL
OXA-48, sequence (Q6XEC0 23-265 limits assumed): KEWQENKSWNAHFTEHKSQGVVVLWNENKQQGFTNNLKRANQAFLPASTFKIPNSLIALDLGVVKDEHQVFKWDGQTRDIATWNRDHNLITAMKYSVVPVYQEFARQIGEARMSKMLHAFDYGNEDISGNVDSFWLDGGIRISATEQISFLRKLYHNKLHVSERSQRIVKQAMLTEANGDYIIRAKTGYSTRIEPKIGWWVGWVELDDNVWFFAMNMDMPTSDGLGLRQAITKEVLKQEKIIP

Regarding `O=C1N2C[C@@H](CC[C@H]2C(F)F)N1OS(=O)(=O)O` [Example 2, Sodium (2S, 5R)-7-oxo-2-(difluoromethyl)-1,6-diazabicyclo[3.2.1]octan-6-yl sulfate], the IC50 in experiment [1] was 20 to 100 nM; in experiment [6], 5 to 20 nM; in experiment [8], less than 10 nM. In addition, the MIC amounted to 2 µg/mL in experiment [2], 1 µg/mL in experiment [3], 4 µg/mL in experiment [4] and 0.06 µg/mL in experiment [7]. For the same compound, the “MIC of meropenem + compound compared with meropenem + avibactam” value in experiment [5] (NTBC091.1) is reported as “lower”. Besides, the “MIC mero + 4 μg/mL inhibitor (banded)” value in experiment [5] (NTBC091.1, MIC of meropenem with 4 μg/mL of the labelled inhibitor, band) was “(A) (1 μg/mL)”.

In general, IC50 refers to the concentration that gives 50% inhibition. Read a low IC50 as higher potency.
